Laboratory results from PubChem BioAssay (NCI).
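48-hour exposure; five concentrations; linearly interpolated endpoints. Abbreviation: GI50, concentration required for 50% inhibition of growth. TGI marks complete inhibition of growth.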

Assays:
Experiment in all cases: NCI anticancer screen, dose series, 48 h
[1] = tested on: CAKI-1 renal
[2] = tested on: UACC-62 melanoma
[3] = tested on: A549 NSCLC
[4] = tested on: T-47D breast
[5] = tested on: OVCAR-3 ovarian
[6] = tested on: NCI-H226 lung
[7] = tested on: A498 renal
[8] = tested on: UO-31 renal
[9] = tested on: HCC-2998 colon
[10] = tested on: SW-620 colon
[11] = tested on: CCRF-CEM leukemia
[12] = tested on: SF-268 CNS
[13] = tested on: TK-10 renal
[14] = tested on: SK-MEL-2 melanoma
[15] = tested on: MDA-MB-435
[16] = tested on: SK-MEL-28 melanoma
[17] = tested on: ACHN renal
[18] = tested on: SR leukemia
[19] = tested on: OVCAR-8 ovarian
[20] = tested on: NCI/ADR-RES ovarian
[21] = tested on: LOX IMVI melanoma
[22] = tested on: BT-549 breast
[23] = tested on: SK-MEL-5 melanoma
[24] = tested on: HS 578T breast
[25] = tested on: SK-OV-3 ovarian
[26] = tested on: NCI-H460 lung
[27] = tested on: NCI-H23 lung
[28] = tested on: COLO 205 colon
[29] = tested on: SN12C renal
[30] = tested on: RXF 393 renal
[31] = tested on: HCT-15 colon
[32] = tested on: MALME-3M melanoma
[33] = tested on: HT29 colon
[34] = tested on: HOP-62 NSCLC
[35] = tested on: M14 melanoma
[36] = tested on: HOP-92 NSCLC
[37] = tested on: NCI-H522 lung
[38] = tested on: PC-3 prostate
[39] = tested on: IGROV1 ovarian
[40] = tested on: U251 CNS
[41] = tested on: HCT-116 colon
[42] = tested on: SNB-75 CNS
[43] = tested on: SF-295 CNS
[44] = tested on: MOLT-4 leukemia
[45] = tested on: HL-60(TB) leukemia
[46] = tested on: KM12 colon
[47] = tested on: K-562 leukemia
[48] = tested on: SF-539 CNS
[49] = tested on: RPMI-8226 leukemia
[50] = tested on: DU-145 prostate
[51] = tested on: OVCAR-4 ovarian
[52] = tested on: EKVX NSCLC
[53] = tested on: MCF7 breast
[54] = tested on: SNB-19 CNS
[55] = tested on: 786-0 renal
[56] = tested on: MDA-MB-231 breast
[57] = tested on: OVCAR-5 ovarian
[58] = tested on: UACC-257 melanoma

CCOc1cccc(/C=N/NC(=O)Cc2ccc(Nc3ccnc(C(F)(F)F)c3)cc2)c1O was tested. Which GI50 [1] did it give?
The GI50 was 2.54 µM.

What about the TGI [1] of the same compound?
Its TGI is 52.2 µM.

And the GI50 [2]?
Its GI50 is 1.64 µM.

What about the TGI [2] of the same compound?
Its TGI is 14.7 µM.

And the GI50 [3]?
The GI50 was 4.09 µM.

What about the TGI [3] of the same compound?
Its TGI is > 100 µM.

What about the GI50 [4] of the same compound?
The GI50 was 2.43 µM.

And the TGI [4]?
Its TGI is 26 µM.

And the GI50 [5]?
The GI50 was 0.394 µM.

What about the TGI [5] of the same compound?
Its TGI is 30.4 µM.

And the GI50 [6]?
The GI50 was 3.21 µM.

And the TGI [6]?
The TGI was 34.9 µM.

And the GI50 [7]?
The GI50 was 4.62 µM.

And the TGI [7]?
The TGI was 67 µM.

What about the GI50 [8] of the same compound?
Its GI50 is 0.986 µM.

What about the TGI [8] of the same compound?
Its TGI is 20.7 µM.

What about the GI50 [9] of the same compound?
Its GI50 is 6.78 µM.

And the TGI [9]?
Its TGI is 93.4 µM.

What about the GI50 [10] of the same compound?
The GI50 was 3.06 µM.

And the TGI [10]?
Its TGI is 18 µM.

And the GI50 [11]?
Its GI50 is 0.328 µM.

And the TGI [11]?
The TGI was 2.76 µM.

And the GI50 [12]?
Its GI50 is 1.27 µM.

What about the TGI [12] of the same compound?
Its TGI is 32.4 µM.

And the GI50 [13]?
Its GI50 is 4.01 µM.

What about the TGI [13] of the same compound?
The TGI was 44.5 µM.

And the GI50 [14]?
The GI50 was 11.4 µM.

And the TGI [14]?
The TGI was 45 µM.

And the GI50 [15]?
Its GI50 is 3.77 µM.

And the TGI [15]?
The TGI was > 100 µM.

What about the GI50 [16] of the same compound?
Its GI50 is 2.97 µM.

And the TGI [16]?
Its TGI is > 100 µM.

And the GI50 [17]?
Its GI50 is 1.53 µM.

And the TGI [17]?
The TGI was > 100 µM.

What about the GI50 [18] of the same compound?
Its GI50 is 0.316 µM.

And the TGI [18]?
Its TGI is 10.8 µM.

And the GI50 [19]?
Its GI50 is 3.27 µM.

What about the TGI [19] of the same compound?
The TGI was > 100 µM.

And the GI50 [20]?
The GI50 was 4.23 µM.

What about the TGI [20] of the same compound?
The TGI was > 100 µM.

And the GI50 [21]?
The GI50 was 1.49 µM.

And the TGI [21]?
Its TGI is > 100 µM.

What about the GI50 [22] of the same compound?
The GI50 was 2.34 µM.

And the TGI [22]?
The TGI was 46.3 µM.

And the GI50 [23]?
The GI50 was 1.67 µM.

And the TGI [23]?
Its TGI is 5.99 µM.

What about the GI50 [24] of the same compound?
The GI50 was 5.75 µM.

And the TGI [24]?
Its TGI is > 100 µM.

And the GI50 [25]?
Its GI50 is 3.3 µM.

What about the TGI [25] of the same compound?
The TGI was > 100 µM.

What about the GI50 [26] of the same compound?
Its GI50 is 1.71 µM.

And the TGI [26]?
Its TGI is 13.5 µM.

What about the GI50 [27] of the same compound?
The GI50 was 5.26 µM.

What about the TGI [27] of the same compound?
The TGI was > 100 µM.

What about the GI50 [28] of the same compound?
Its GI50 is 3.9 µM.

And the TGI [28]?
The TGI was > 100 µM.

And the GI50 [29]?
The GI50 was 4.58 µM.

And the TGI [29]?
The TGI was > 100 µM.

What about the GI50 [30] of the same compound?
The GI50 was 3.2 µM.

And the TGI [30]?
Its TGI is 40 µM.

And the GI50 [31]?
The GI50 was 0.909 µM.

And the TGI [31]?
Its TGI is > 100 µM.

And the GI50 [32]?
The GI50 was 2.13 µM.

And the TGI [32]?
Its TGI is 18.7 µM.

And the GI50 [33]?
The GI50 was 8 µM.

And the TGI [33]?
Its TGI is 78.6 µM.

And the GI50 [34]?
Its GI50 is 2.28 µM.

What about the TGI [34] of the same compound?
Its TGI is 30.8 µM.

What about the GI50 [35] of the same compound?
The GI50 was 1.79 µM.

What about the TGI [35] of the same compound?
Its TGI is 15.8 µM.

What about the GI50 [36] of the same compound?
Its GI50 is 1.9 µM.

What about the TGI [36] of the same compound?
Its TGI is 9.93 µM.

And the GI50 [37]?
Its GI50 is 4.76 µM.

And the TGI [37]?
Its TGI is 33.2 µM.

What about the GI50 [38] of the same compound?
Its GI50 is 1.88 µM.

What about the TGI [38] of the same compound?
Its TGI is 21.6 µM.

And the GI50 [39]?
Its GI50 is 2.27 µM.

What about the TGI [39] of the same compound?
Its TGI is > 100 µM.

What about the GI50 [40] of the same compound?
The GI50 was 1.58 µM.

And the TGI [40]?
The TGI was > 100 µM.

What about the GI50 [41] of the same compound?
The GI50 was 1.2 µM.

What about the TGI [41] of the same compound?
Its TGI is 19.3 µM.

And the GI50 [42]?
Its GI50 is 12.4 µM.

What about the TGI [42] of the same compound?
The TGI was 55 µM.

What about the GI50 [43] of the same compound?
Its GI50 is 3.81 µM.

What about the TGI [43] of the same compound?
Its TGI is 43.2 µM.

And the GI50 [44]?
Its GI50 is 0.499 µM.

What about the TGI [44] of the same compound?
Its TGI is 4.42 µM.

And the GI50 [45]?
Its GI50 is 1.03 µM.

What about the TGI [45] of the same compound?
The TGI was 4.22 µM.

What about the GI50 [46] of the same compound?
The GI50 was 3.73 µM.

And the TGI [46]?
The TGI was 84.3 µM.

What about the GI50 [47] of the same compound?
The GI50 was 2.25 µM.

And the TGI [47]?
Its TGI is 15 µM.

And the GI50 [48]?
The GI50 was 2.03 µM.

What about the TGI [48] of the same compound?
Its TGI is 14.5 µM.

What about the GI50 [49] of the same compound?
The GI50 was 0.519 µM.

What about the TGI [49] of the same compound?
Its TGI is 17.4 µM.

And the GI50 [50]?
The GI50 was 2.06 µM.

What about the TGI [50] of the same compound?
Its TGI is > 100 µM.

And the GI50 [51]?
Its GI50 is 0.824 µM.

What about the TGI [51] of the same compound?
The TGI was > 100 µM.

What about the GI50 [52] of the same compound?
The GI50 was 3.87 µM.

And the TGI [52]?
Its TGI is > 100 µM.

And the GI50 [53]?
The GI50 was 2.39 µM.

And the TGI [53]?
The TGI was > 100 µM.

And the GI50 [54]?
Its GI50 is 2.54 µM.

What about the TGI [54] of the same compound?
Its TGI is > 100 µM.

What about the GI50 [55] of the same compound?
The GI50 was 2.85 µM.

And the TGI [55]?
Its TGI is 74.9 µM.

What about the GI50 [56] of the same compound?
The GI50 was 3.15 µM.

What about the TGI [56] of the same compound?
The TGI was > 100 µM.

What about the GI50 [57] of the same compound?
The GI50 was 32.6 µM.

What about the TGI [57] of the same compound?
Its TGI is > 100 µM.

And the GI50 [58]?
The GI50 was 6.84 µM.

What about the TGI [58] of the same compound?
The TGI was > 100 µM.
